The values below come from US20260285872A1, “COMPOUNDS AND METHODS FOR DEGRADING GSPT1” (priority 2023, published 2026).

pIC50: −log10 of the molar value.

For the experiment, the system named is NCI-H1155 cells. The experiment is described as follows: NSCLC cell viability, CellTiter-Glo, NCI-H1155 cells. It is filed as cell-based. As to conditions: Homo sapiens; NCI-H1155 cells, CellTiter-Glo, 72 hours of treatment; read-out: Cell viability classification (NCI-H1155). For orientation: ATP-based viability assays read luminescence as a measure of living cells.
For `O=C1CCC(N2Cc3cc(C(=O)N4CC5(CC5)c5ccc(F)cc54)ccc3C2=O)C(=O)N1` (stereo not shown) [Example 105, 3-(5-(6′-fluorospiro[cyclopropane-1,3′-indoline]-1′-carbonyl)-1-oxoisoindolin-2-yl)piperidine-2,6-dione], the pIC50 is > 8.00.

For `C[C@H]1CN(C(=O)c2ccc3c(c2)CN(C2CCC(=O)NC2=O)C3=O)c2cc(F)ccc21` (stereo partly drawn) [Example 132, 3-(5-((R)-6-fluoro-3-methylindoline-1-carbonyl)-1-oxoisoindolin-2-yl)piperidine-2,6-dione], the pIC50 is > 8.00.

For `Cc1c(N2CCC(=O)NC2=O)ccc2ccc(C(=O)N3CCc4ccc(F)cc43)cc12` [Example 134, 1-(7-(6-fluoroindoline-1-carbonyl)-1-methylnaphthalen-2-yl)dihydropyrimidine-2,4(1H,3H)-dione], the pIC50 is 7.00 to 8.00.

On to `C[C@@H]1c2c(F)cccc2CN1C(=O)c1ccc2c(c1)CN(C1CCC(=O)NC1=O)C2=O` (stereo partly drawn) [Example 139, 3-(5-((R)-7-fluoro-1-methylisoindoline-2-carbonyl)-1-oxoisoindolin-2-yl)piperidine-2,6-dione], for which the pIC50 is 7.00 to 8.00.

Take `C[C@H]1c2c(F)cccc2CN1C(=O)c1ccc2c(c1)CN(C1CCC(=O)NC1=O)C2=O` (stereo partly drawn) [Example 140, 3-(5-((S)-7-fluoro-1-methylisoindoline-2-carbonyl)-1-oxoisoindolin-2-yl)piperidine-2,6-dione]: the pIC50 is < 6.00.

In the case of `C[C@H]1c2cccc(F)c2CN1C(=O)c1ccc2c(c1)CN(C1CCC(=O)NC1=O)C2=O` (stereo partly drawn) [Example 141, 3-(5-((S)-4-fluoro-1-methylisoindoline-2-carbonyl)-1-oxoisoindolin-2-yl)piperidine-2,6-dione], the pIC50 was 6.00 to 7.00.

For `C[C@@H]1c2cccc(F)c2CN1C(=O)c1ccc2c(c1)CN(C1CCC(=O)NC1=O)C2=O` (stereo partly drawn) [Example 142, 3-(5-((R)-4-fluoro-1-methylisoindoline-2-carbonyl)-1-oxoisoindolin-2-yl)piperidine-2,6-dione], the pIC50 is < 6.00.

For `O=C1CCN(c2ccc3cc(COC(=O)Nc4cc(OC(F)(F)F)ccc4F)ccc3c2)C(=O)N1` [Example 143, (6-(2,4-dioxotetrahydropyrimidin-1(2H)-yl)naphthalen-2-yl)methyl(2-fluoro-5-(trifluoromethoxy)phenyl)carbamate], the pIC50 was 6.00 to 7.00.

`O=C1CCC(N2Cc3cc(C(=O)N4Cc5ccc(F)c(Cl)c5C4)ccc3C2=O)C(=O)N1` (stereo not shown) [Example 144, 3-(5-(4-chloro-5-fluoroisoindoline-2-carbonyl)-1-oxoisoindolin-2-yl)piperidine-2,6-dione]: the pIC50 was 7.00 to 8.00.

`O=C1CCC(c2nc3ccc(C(=O)N4CCc5ccccc5C4)cc3o2)C(=O)N1` (stereo not shown) [Example 146, 3-(6-(1,2,3,4-tetrahydroisoquinoline-2-carbonyl)benzo[d]oxazol-2-yl)piperidine-2,6-dione]: the pIC50 is 6.00 to 7.00.

`O=C1CCC(N2Cc3cc(C(=O)N4Cc5cc(Cl)cc(F)c5C4)ccc3C2=O)C(=O)N1` (stereo not shown) [Example 148, 3-(5-(6-chloro-4-fluoroisoindoline-2-carbonyl)-1-oxoisoindolin-2-yl)piperidine-2,6-dione]: the pIC50 was 7.00 to 8.00.

Turning to `Cc1ccc2c(c1F)CN(C(=O)c1ccc3c(c1)CN(C1CCC(=O)NC1=O)C3=O)C2` (stereo not shown) [Example 149, 3-(5-(4-fluoro-5-methylisoindoline-2-carbonyl)-1-oxoisoindolin-2-yl)piperidine-2,6-dione], the pIC50 is 7.00 to 8.00.

As to `N#Cc1ccc2c(c1F)CN(C(=O)c1ccc3c(c1)CN(C1CCC(=O)NC1=O)C3=O)C2` (stereo not shown) [Example 150, 2-(2-(2,6-dioxopiperidin-3-yl)-1-oxoisoindoline-5-carbonyl)-4-fluoroisoindoline-5-carbonitrile], the pIC50 is 6.00 to 7.00.

As to `O=C1CCC(N2Cc3cc(C(=O)N4Cc5cccc(OC(F)(F)F)c5C4)ccc3C2=O)C(=O)N1` (stereo not shown) [Example 151, 3-(1-oxo-5-(4-(trifluoromethoxy)isoindoline-2-carbonyl)isoindolin-2-yl)piperidine-2,6-dione], the pIC50 was 7.00 to 8.00.

Regarding `O=C1CCC(N2Cc3cc(C(=O)N4Cc5cc(F)cc(Cl)c5C4)ccc3C2=O)C(=O)N1` (stereo not shown) [Example 152, 3-(5-(4-chloro-6-fluoroisoindoline-2-carbonyl)-1-oxoisoindolin-2-yl)piperidine-2,6-dione], the pIC50 was 7.00 to 8.00.

As for `O=C1CCC(c2nc3ccc(C(=O)N4Cc5cccc(OC(F)(F)F)c5C4)cc3o2)C(=O)N1` (stereo not shown) [Example 153, 3-(6-(4-(trifluoromethoxy)isoindoline-2-carbonyl)benzo[d]oxazol-2-yl)piperidine-2,6-dione], the pIC50 was < 6.00.

Take `O=C1CCC(N2Cc3cc(C(=O)N4CC5(CNC5)c5ccc(F)cc54)ccc3C2=O)C(=O)N1` (stereo not shown) [Example 154, 3-(5-(6′-fluorospiro[azetidine-3,3′-indoline]-1′-carbonyl)-1-oxoisoindolin-2-yl)piperidine-2,6-dione]: the pIC50 is < 6.00.

`Cc1cc(F)c2c(c1)CN(C(=O)c1ccc3c(c1)CN(C1CCC(=O)NC1=O)C3=O)C2` (stereo not shown) [Example 155, 3-(5-(4-fluoro-6-methylisoindoline-2-carbonyl)-1-oxoisoindolin-2-yl)piperidine-2,6-dione]: the pIC50 was > 8.00.

In the case of `N#Cc1cc(F)c2c(c1)CN(C(=O)c1ccc3c(c1)CN(C1CCC(=O)NC1=O)C3=O)C2` (stereo not shown) [Example 156, 2-(2-(2,6-dioxopiperidin-3-yl)-1-oxoisoindoline-5-carbonyl)-7-fluoroisoindoline-5-carbonitrile], the pIC50 is 7.00 to 8.00.

Consider `O=C1CCC(N2Cc3cc(C(=O)N4CC5(CCC(F)(F)CC5)C4)ccc3C2=O)C(=O)N1` (stereo not shown) [Example 157, 3-(5-(7,7-difluoro-2-azaspiro[3.5]nonane-2-carbonyl)-1-oxoisoindolin-2-yl)piperidine-2,6-dione], for which the pIC50 is 6.00 to 7.00.

Consider `C[C@@H]1c2c(F)cccc2CN1C(=O)c1ccc2nc(C3CCC(=O)NC3=O)oc2c1` (stereo partly drawn) [Example 159, 3-(6-((R)-7-fluoro-1-methylisoindoline-2-carbonyl)benzo[d]oxazol-2-yl)piperidine-2,6-dione], for which the pIC50 is < 6.00.

On to `C[C@H]1c2c(F)cccc2CN1C(=O)c1ccc2nc(C3CCC(=O)NC3=O)oc2c1` (stereo partly drawn) [Example 160, 3-(6-((S)-7-fluoro-1-methylisoindoline-2-carbonyl)benzo[d]oxazol-2-yl)piperidine-2,6-dione], for which the pIC50 was 6.00 to 7.00.

Turning to `COc1cccc2c1CN(C(=O)c1ccc3nc(C4CCC(=O)NC4=O)oc3c1)C2` (stereo not shown) [Example 162, 3-(6-(4-methoxyisoindoline-2-carbonyl)benzo[d]oxazol-2-yl)piperidine-2,6-dione], the pIC50 was < 6.00.

Consider `O=C1CCC(N2Cc3cc(C(=O)N4CC5(CCC(F)(F)C5)C4)ccc3C2=O)C(=O)N1` (stereo not shown) [Example 163, 3-(5-(6,6-difluoro-2-azaspiro[3.4]octane-2-carbonyl)-1-oxoisoindolin-2-yl)piperidine-2,6-dione], for which the pIC50 was 6.00 to 7.00.

`O=C1CCC(N2Cc3cc(C(=O)N4CC5(C4)CC(F)(c4ccc(F)cc4)C5)ccc3C2=O)C(=O)N1` (stereo not shown) [Example 168, 3-(5-(6-fluoro-6-(4-fluorophenyl)-2-azaspiro[3.3]heptane-2-carbonyl)-1-oxoisoindolin-2-yl)piperidine-2,6-dione]: the pIC50 is 6.00 to 7.00.
